PubChem BioAssay AID1552 (Sanford-Burnham Center for Chemical Genomics, 2009)
Activity calls are given as the source filed them. How the calls were made is not given here.

These molecules were tested against Ubiquitin-conjugating enzyme E2 N (Homo sapiens) (UniProt P61088) (assay: NMR detection of UBE2N ligand binding – biophysical, purified protein (AID 1552)). Settings: NMR binding to purified UBE2N.
Ubiquitin-conjugating enzyme E2 N (Homo sapiens), sequence (P61088 whole entry, looked up): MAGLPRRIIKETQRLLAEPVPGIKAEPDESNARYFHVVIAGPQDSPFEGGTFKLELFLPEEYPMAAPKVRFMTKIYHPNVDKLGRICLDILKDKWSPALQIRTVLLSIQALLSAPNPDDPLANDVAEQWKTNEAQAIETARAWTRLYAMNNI

Structure (SMILES)	Kd
Cc1cccc(N2CCN(C(=O)c3ccncc3)CC2)c1C	> 4 mM (inactive)
C=CCCCCCCCCCCCC(O)CC(O)CO (configuration not stated) (tested in a mixture with another compound)	> 4 mM (inactive)
Cc1cc(C)n2nc(-c3cccnc3)nc2n1	> 4 mM (inactive)
O=C(CSc1ncccn1)Nc1nccs1	> 4 mM (inactive)
CC(=O)O[C@H]1C[C@@H](OC(C)=O)C(C)(C)C2C[C@@H](OC(C)=O)[C@]3(C)C(CC[C@@]4(C)[C@H](c5ccoc5)C(=O)[C@H]5O[C@]543)[C@]21C (some centres not stated)	> 4 mM (inactive)
CC(=O)Nc1ccc(NC2SC(=O)NC2=O)cc1 (configuration not stated)	> 4 mM (inactive)
CCn1nnnc1Oc1ccc(Cl)cc1	> 4 mM (inactive)
O=C1CCC([N+](=O)[O-])C(c2ccccc2F)N1 (configuration not stated)	> 4 mM (inactive)
NC(=O)Cn1cnc(-c2ccc(F)cc2)c1	> 4 mM (inactive)
c1ccc(C[N+]23CCN(CC2)c2ccccc23)cc1	> 4 mM (inactive)
O=c1[nH]c2c(c(=O)n1C1CCCCC1)CCC2	> 4 mM (inactive)
O=C(Nc1c[nH]c(=O)[nH]c1=O)c1cccs1	> 4 mM (inactive)
CN(C)/C=N/S(=O)(=O)c1ccccc1	> 4 mM (inactive)
NS(=O)(=O)c1ccc(NC(=O)c2ccccc2F)cc1	> 4 mM (inactive)
c1csc(-c2nn[nH]n2)c1	> 4 mM (inactive)
O=c1cc(-c2ccc(O)cc2)[nH]c(=S)[nH]1	> 4 mM (inactive)
c1ccc(CCc2nc(-c3ccccn3)no2)cc1	> 4 mM (inactive)
CCN1CCc2c(sc(N)c2C#N)C1	> 4 mM (inactive)
CC(C)NC(=O)c1cc(-n2cnnc2)ccc1Cl	> 4 mM (inactive)
O=C(NC(=S)NC1CCS(=O)(=O)C1)c1ccccc1 (configuration not stated)	> 4 mM (inactive)
Cc1c(C(=O)NCc2ccccn2)oc2ccccc12	> 4 mM (inactive)
Cn1nc(C(=O)N2CCOCC2)c2ccccc2c1=O	> 4 mM (inactive)
C=C(C)CSc1nc2nc(C)cc(C)n2n1	> 4 mM (inactive)
COc1ccccc1NC(=O)/C=N/O	> 4 mM (inactive)

Structure (SMILES)	Kd
COc1ccccc1NC(N)=S	> 4 mM (inactive)
Cc1cc(C(=O)NN2CCOCC2)c(C)o1	> 4 mM (inactive)
Cc1cc(=O)c2ccccc2n1CC(N)=O	> 4 mM (inactive)
OCc1cccc2nonc12	> 4 mM (inactive)
Cc1sc2nc(NCCO)[nH]c(=O)c2c1C	> 4 mM (inactive)
NC1CSCC1O (configuration not stated)	> 4 mM (inactive)
Cc1cc(SCC(=O)c2ccccc2)nc(=O)[nH]1	> 4 mM (inactive)
COc1ccc(Cl)c(S(=O)(=O)N2CCCC2)c1	> 4 mM (inactive)
CS(=O)(=O)Nc1cc2c3c(c1)CCN3C(=O)CC2	> 4 mM (inactive)
COC(=O)c1ccc(NC(=O)CC2NCCNC2=O)cc1 (configuration not stated)	> 4 mM (inactive)
COc1ccc2c(c1)OC/C(=C/c1ccc(OC)c(OC)c1)C2=O	> 4 mM (inactive)
Cc1cc(C(=O)N2CCC3(CC2)OCCO3)cs1	> 4 mM (inactive)
O=C1Nc2ccccc2C1(O)Cc1ccncc1 (configuration not stated)	> 4 mM (inactive)
c1ccc(-n2nnnc2-n2cnc3ccccc32)cc1	> 4 mM (inactive)
N=C1/C(=C\c2ccco2)C(=O)N=C2SC=NN12	> 4 mM (inactive)
c1coc(CNc2nc(-c3ccncc3)cs2)c1	> 4 mM (inactive)
O=C(c1ccccc1)c1ccccc1C(=O)N1CCCC1	> 4 mM (inactive)
Cc1noc(C)c1C(=O)NCc1cccs1	> 4 mM (inactive)
COc1ccc2ccc(=O)oc2c1CC=C(C)C	> 4 mM (inactive)
COC(=O)c1ccc2ncccc2c1	> 4 mM (inactive)
NC(=O)c1ccccc1NC(=O)C1CCCO1 (configuration not stated)	> 4 mM (inactive)
CCC1=Nc2ccccc2-c2nnc(SC)nc2O1	> 4 mM (inactive)
CNC(=O)C1COc2ccccc2O1 (configuration not stated)	> 4 mM (inactive)
NC(=O)C1CCN(C(=O)c2ccco2)CC1	> 4 mM (inactive)

Structure (SMILES)	Kd
COc1cnn(-c2ccccc2)c(=O)c1N(C)C	> 4 mM (inactive)
Cc1cc(Cl)ccc1NC(=O)C(N)=O	> 4 mM (inactive)
Cn1cnc2c(cnn2-c2ccccc2)c1=O	> 4 mM (inactive)
O=C(NCCO)c1cc2ccccc2c(=O)s1	> 4 mM (inactive)
OCCNc1ccccn1	> 4 mM (inactive)
O=C(NCCCO)c1ccncc1	> 4 mM (inactive)
CC1=C2C(=CO[C@H](C)[C@H]2C)C(=O)C(C(=O)O)=C1O	> 4 mM (inactive)
COc1ccc(-c2oc3ccccc3c(=O)c2O)cc1OC	> 4 mM (inactive)
Cc1occc1C(=O)Nc1nccs1	> 4 mM (inactive)
COC(=O)NCc1cc2cc(Cl)ccc2[nH]1	> 4 mM (inactive)
NCc1nnnn1-c1ccccc1	> 4 mM (inactive)
C=C1C2CC[C@@]3(C)[C@H](c4ccoc4)OC(=O)C[C@]13O[C@H]1CC(=O)C(C)(C)C(CC(=O)OC)C21C (some centres not stated)	> 4 mM (inactive)
COC(=O)C1CSCC1=O (configuration not stated)	> 4 mM (inactive)
CNC(=O)c1c(O)c2ccccc2[nH]c1=O	> 4 mM (inactive)
NC(=O)Cn1cnc2ccccc21	> 4 mM (inactive)
Cc1nn(-c2ccccc2)nc1CO	> 4 mM (inactive)
Cc1cc(C(=O)NCc2cccs2)c(C)o1	> 4 mM (inactive)
O=S(=O)(O)c1cc[n+]([O-])cc1	> 4 mM (inactive)
CCSc1nc(C)c(CC)c(C)c1C(N)=O	> 4 mM (inactive)
CCn1ccc(C(=O)Nc2nccs2)n1	> 4 mM (inactive)
CC(=O)CC1(O)C(=O)Nc2ccccc21 (configuration not stated)	> 4 mM (inactive)
Cc1cc(C(=O)Nc2ccc3c(c2)OCCO3)c(C)o1	> 4 mM (inactive)
C[C@]12CCC(=O)C=C1CCC1C2C(=O)C[C@@]2(C)C1CC[C@]2(O)C(=O)CO (some centres not stated)	> 4 mM (inactive)
C=C1[C@H]2CC[C@@]3(C)[C@H](c4ccoc4)OC(=O)C[C@]13O[C@H]1C[C@H](O)C(C)(C)[C@H](CC(=O)OC)[C@]12C	> 4 mM (inactive)

Structure (SMILES)	Kd
O=C(c1ccncc1)N1CCN(C(=O)c2ccncc2)CC1	> 4 mM (inactive)
O=C(O)CSCc1c(F)cccc1Cl	> 4 mM (inactive)
Cc1nnc(N2CCc3ccccc3C2)[nH]c1=O	> 4 mM (inactive)
CCOC(=O)C1=C(C)N2CCN=C2S1	> 4 mM (inactive)
COc1cccc(/C=N/N=C2/NC(=O)CS2)c1	> 4 mM (inactive)
CCOC(=O)c1ccc(Oc2ccc(C)nn2)cc1	> 4 mM (inactive)
COc1ccc(-c2cc(=O)c3c(O)cc(O[C@H]4O[C@H](CO[C@@H]5O[C@@H](C)[C@H](O)[C@@H](O)[C@H]5O)[C@@H](O)[C@H](O)[C@H]4O)cc3o2)cc1	> 4 mM (inactive)
Cc1ccc(-c2nnc3sc(-c4ccncc4)nn23)cc1	> 4 mM (inactive)
Cc1noc(C)c1C(=O)NC1=NCCS1	> 4 mM (inactive)
OCc1ncoc1-c1ccccc1	> 4 mM (inactive)
CC(C)=CCCC1(C)C=Cc2c(O)c3c(c(CC=C(C)C)c2O1)OC12C(=CC4CC1C(C)(C)OC2(C/C=C(/C)C(=O)O)C4=O)C3=O (configuration not stated)	> 4 mM (inactive)
CC(=O)Nc1ccc(Oc2nc(C)cc(C)n2)cc1	> 4 mM (inactive)
COc1ccc(/C=C2\NC(=S)N(C)C2=O)cc1O	> 4 mM (inactive)
Oc1ccc([C@H]2Oc3cc(O)cc(O)c3C[C@H]2O)cc1	> 4 mM (inactive)
O=C(O)c1ccc(Nc2nncc(=O)[nH]2)cc1	> 4 mM (inactive)
CCCCCCCCCCCCCc1ccco1	> 4 mM (inactive)
CC(=O)Cc1nsc(NC(=O)c2ccc(C)cc2)n1	> 4 mM (inactive)
CCCc1nc2ccccc2c2nc(N)nn12	> 4 mM (inactive)
CC(C)(C)CC(=O)NNC(=O)c1cnccn1	> 4 mM (inactive)
C=C1C2CC[C@@]3(C)[C@H](c4ccoc4)OC(=O)C[C@]13O[C@H]1CC(=O)C(C)(C)[C@H](C(O)C(=O)OC)[C@@]21C (some centres not stated)	> 4 mM (inactive)
N[C@@H](Cc1cc(I)c(Oc2cc(I)c(O)c(I)c2)c(I)c1)C(=O)O	> 4 mM (inactive)
C=C[C@H]1CN2CC[C@H]1C[C@@H]2[C@@H](O)c1ccnc2ccc(OC)cc12	> 4 mM (inactive)
CCCCCC(=O)Cc1cc(O)cc(O)c1C(=O)Oc1cc(CC(=O)CCCCC)c(C(=O)O)c(OC)c1	> 4 mM (inactive)
Cc1cc(=O)[nH]c(N2CCCCC2)n1	> 4 mM (inactive)

Structure (SMILES)	Kd
CSc1ccccc1NC(=O)c1cccnc1	> 4 mM (inactive)
CC(=O)Oc1ccc2c(c1)c(C(C)=O)c(C)n2C	> 4 mM (inactive)
NC(=O)C1CCN(CC2CC=CCC2)CC1 (configuration not stated)	> 4 mM (inactive)
Fc1ccc(CN2CCCNCC2)cc1	> 4 mM (inactive)
CC(=O)NN1C(=O)/C(=C\c2ccc(O)cc2)SC1=S	> 4 mM (inactive)
Cc1cc(C)cc(C(=O)N2CCC(C(N)=O)CC2)c1	> 4 mM (inactive)
COC(=O)C1CCc2ccccc2N1 (configuration not stated)	> 4 mM (inactive)
CSc1nn(-c2ccccc2)c(N)c1C#N	> 4 mM (inactive)
CC(C)c1c(O)ccc2c1CCC1[C@@](C)(CO)CCC[C@]21C (some centres not stated)	> 4 mM (inactive)
CSc1nnc2[nH]c(=O)cc(N)n12	> 4 mM (inactive)
OCc1ccc2ncccc2c1	> 4 mM (inactive)
O=C(Nn1cnnc1)c1cc2c(s1)CCCC2	> 4 mM (inactive)
Nc1nc2ccc(S(N)(=O)=O)cc2s1	> 4 mM (inactive)
Cc1nc(-c2cccc(C(=O)O)c2)cs1	> 4 mM (inactive)
O=c1c(O)c(-c2ccccc2)oc2cc(O)ccc12	> 4 mM (inactive)
CNC[C@@H](O)c1ccc(O)c(O)c1	> 4 mM (inactive)
CC(NC(=O)c1ccco1)C1CCCO1 (configuration not stated)	> 4 mM (inactive)
NC1=NC(=O)/C(=C/c2ccc(O)c(Cl)c2)S1	> 4 mM (inactive)
COC(=O)[C@]1(C)CC[C@]2(C)CC[C@]3(C)C4=CCc5c(cc(O)c(O)c5C)[C@]4(C)CC[C@@]3(C)C2C1 (some centres not stated)	> 4 mM (inactive)
CC(=O)N1CCN(c2ccc(O)cc2)CC1	> 4 mM (inactive)
O=C(O)Cn1c(C(F)(F)F)nc2ccccc21	> 4 mM (inactive)
